In PMC6499206, “Quantification of Volatile Metabolites Derived From Garlic (Allium sativum) in Human Urine” (Frontiers in Nutrition, 2019):

Assay: Quantification of garlic-derived metabolites in human urine after ingestion of 3 g raw garlic (SIDA, SAFE, HRGC-MS / HRGC-GC-MS)
Format: in vivo
Settings: for metabolite concentration in urine / metabolite concentration in urine, creatinine-normalized: 3 g raw garlic
Source text: Human urine samples were obtained from 18 volunteers (age 22–38 years, mean 27 years; 11 females, 7 males); thereby, one volunteer conducted the whole experimental series twice. At the time of examination, volunteers reported no known illness that might have potentially influenced the metabolism or the excretion of urine. The test persons were instructed to avoid foods that were rich in sulfur-containing substances at the testing day as well as 2 days preceding the testing day, namely garlic, onion, wild garlic, chives, cabbage, and leek, and were only allowed to consume the garlic sample provided in the course of the experiments. Additionally, subjects were asked to keep records of the food (including food supplements) and beverages they consumed during these 3 testing days. Generally, the overall panelists' requirements were in accordance with our previous studies ([5], [16]).
On the sampling day, the outer garlic cloves of a whole garlic bulb were peeled and cut into ~3 mm cubes by using a garlic cutter (Genius GmbH, Limburg/Lahn, Germany). Subsequently these cubes were thoroughly mixed and aliquoted into 3 g portions. Three to four test persons conducted the experiment at the same day. Each test person was asked to ingest a garlic portion of 3 g. In total, eight consecutive urine samples were provided by each test person, comprising one whole urine set. The samples were collected in sterile brown glass bottles, with sampling times as follows: one sample was provided directly prior to garlic consumption. The series of the second to eighth sample was then obtained at about 0.5, 1, 2, 4, 6, 8, and 24 h after garlic consumption, respectively. Between the first urine sample (prior to garlic consumption) and the seventh urine sample (8 h after garlic consumption) test persons only spent urine at the specific time points mentioned before. Another sample was provided at the next morning (24 h after garlic consumption). Between the samples provided 8 and 24 h after garlic consumption no urine was collected. All samples were immediately placed into a −80°C freezer and were kept frozen until further analysis.
The samples of each set were termed according to their sampling time. The following list provides the time intervals that are related to the respective sample name: • - pre: before garlic consumption • - 0.5 h post: 0.4–0.8 h after garlic consumption • - 1 h post: 0.9–1.3 h after garlic consumption • - 2 h post: 1.8 h−2.2 h after garlic consumption • - 4 h post: 3.8–4.4 h after garlic consumption • - 6 h post: 5.8–6.4 h after garlic consumption • - 8 h post: 7.8–8.4 h after garlic consumption • - 24 h post: 23.8–25.6 h after garlic consumption
A creatinine kit (Labor+Technik Eberhard Lehmann GmbH, Berlin, Germany) was used to determine the creatinine content in each urine sample. The determination principle of this kit is based on the reaction of creatinine with picric acid under basic conditions (Jaffé reaction). The formed complex was detected photometrically at a wavelength of 492 nm.
For quantification purposes, the deuterated standards ^2H3-AMS, ^2H3-AMSO, and ^2H3-AMSO2 were added to the sample and stirred for 10 min. Subsequently, DCM was added in a ratio of 1:2 (DCM/human urine; v/v) and this solution was stirred for further 30 min at room temperature. To isolate the volatile fraction from the urine samples we then applied SAFE-distillation ([17]), thereby distilling the respective samples at 50°C. After completion of the distillation process, 10 mL of DCM were applied in each case to rinse the SAFE apparatus and to ensure complete transition of the volatile compounds. This process was repeated with another 10 mL of DCM. After thawing, the obtained aqueous distillate phase was extracted three times with 25 mL DCM. The organic phases were combined, dried over anhydrous Na2SO4 and concentrated to a total volume of 100 μL by means of Vigreux distillation and subsequent micro-distillation at 50°C. […]

C=CCS(C)(=O)=O [AMSO2, allyl methyl sulfone]
concentration in urine compared with human milk (3 g raw garlic in both studies, milk data ref 20): about twice as high
metabolite concentration in urine (U I, 0.5 h post (0.55 h)): 41.7 µg/kg
metabolite concentration in urine, creatinine-normalized (U I, 0.5 h post (0.55 h)): 5.8 µg/mmol creatinine
metabolite concentration in urine (U I, 1 h post (1.03 h)): 98.5 µg/kg
metabolite concentration in urine, creatinine-normalized (U I, 1 h post (1.03 h)): 106.3 µg/mmol creatinine
metabolite concentration in urine (U I, 2 h post (2.05 h)): 138.8 µg/kg
metabolite concentration in urine, creatinine-normalized (U I, 2 h post (2.05 h)): 68.4 µg/mmol creatinine
metabolite concentration in urine (U I, 4 h post (4.05 h)): 172.3 µg/kg
metabolite concentration in urine, creatinine-normalized (U I, 4 h post (4.05 h)): 19.6 µg/mmol creatinine
metabolite concentration in urine (U I, 6 h post (6.05 h)): 170.7 µg/kg
metabolite concentration in urine, creatinine-normalized (U I, 6 h post (6.05 h)): 18.6 µg/mmol creatinine
metabolite concentration in urine (U I, 8 h post (8.05 h)): 119.9 µg/kg
metabolite concentration in urine, creatinine-normalized (U I, 8 h post (8.05 h)): 16.3 µg/mmol creatinine
metabolite concentration in urine (U I, 24 h post (25.55 h)): 5.6 µg/kg
metabolite concentration in urine, creatinine-normalized (U I, 24 h post (25.55 h)): 0.9 µg/mmol creatinine
metabolite concentration in urine (U I, pre (-0.03 h)): < LOD^3
metabolite concentration in urine, creatinine-normalized (U I, pre (-0.03 h)): < LOD^3
metabolite concentration in urine (U II, 0.5 h post (0.50 h)): 32.4 µg/kg
metabolite concentration in urine, creatinine-normalized (U II, 0.5 h post (0.50 h)): 3.0 µg/mmol creatinine
metabolite concentration in urine (U II, 1 h post (1.00 h)): 68.0 µg/kg
metabolite concentration in urine, creatinine-normalized (U II, 1 h post (1.00 h)): 26.1 µg/mmol creatinine
metabolite concentration in urine (U II, 2 h post (2.00 h)): 62.1 µg/kg
metabolite concentration in urine, creatinine-normalized (U II, 2 h post (2.00 h)): 61.0 µg/mmol creatinine
metabolite concentration in urine (U II, 4 h post (4.00 h)): 75.1 µg/kg
metabolite concentration in urine, creatinine-normalized (U II, 4 h post (4.00 h)): 13.8 µg/mmol creatinine
metabolite concentration in urine (U II, 6 h post (6.00 h)): 61.7 µg/kg
metabolite concentration in urine, creatinine-normalized (U II, 6 h post (6.00 h)): 6.8 µg/mmol creatinine
metabolite concentration in urine (U II, 8 h post (8.00 h)): 41.3 µg/kg
metabolite concentration in urine, creatinine-normalized (U II, 8 h post (8.00 h)): 4.9 µg/mmol creatinine
metabolite concentration in urine (U II, 24 h post (24.12 h)): 1.9 µg/kg
metabolite concentration in urine, creatinine-normalized (U II, 24 h post (24.12 h)): 0.1 µg/mmol creatinine
metabolite concentration in urine (U II, pre (-0.13 h)): < LOD^3
metabolite concentration in urine, creatinine-normalized (U II, pre (-0.13 h)): < LOD^3
metabolite concentration in urine (U III, 0.5 h post (0.53 h)): 41.9 µg/kg
metabolite concentration in urine, creatinine-normalized (U III, 0.5 h post (0.53 h)): 24.9 µg/mmol creatinine
metabolite concentration in urine (U III, 1 h post (1.07 h)): 83.3 µg/kg
metabolite concentration in urine, creatinine-normalized (U III, 1 h post (1.07 h)): 117.5 µg/mmol creatinine
metabolite concentration in urine (U III, 2 h post (2.18 h)): 145.2 µg/kg
metabolite concentration in urine, creatinine-normalized (U III, 2 h post (2.18 h)): 89.7 µg/mmol creatinine
metabolite concentration in urine (U III, 4 h post (4.35 h)): 168.2 µg/kg
metabolite concentration in urine, creatinine-normalized (U III, 4 h post (4.35 h)): 63.4 µg/mmol creatinine
metabolite concentration in urine (U III, 6 h post (6.35 h)): 134.9 µg/kg
metabolite concentration in urine, creatinine-normalized (U III, 6 h post (6.35 h)): 26.1 µg/mmol creatinine
metabolite concentration in urine (U III, 8 h post (8.43 h)): 86.7 µg/kg
metabolite concentration in urine, creatinine-normalized (U III, 8 h post (8.43 h)): 15.3 µg/mmol creatinine
metabolite concentration in urine (U III, 24 h post (23.90 h)): 5.6 µg/kg
metabolite concentration in urine, creatinine-normalized (U III, 24 h post (23.90 h)): 0.9 µg/mmol creatinine
metabolite concentration in urine (U III, pre (-0.03 h)): 7.3 µg/kg
metabolite concentration in urine, creatinine-normalized (U III, pre (-0.03 h)): 1.3 µg/mmol creatinine
metabolite concentration in urine (U IV, 0.5 h post (0.55 h)): 31.0 µg/kg
metabolite concentration in urine, creatinine-normalized (U IV, 0.5 h post (0.55 h)): 6.6 µg/mmol creatinine
metabolite concentration in urine (U IV, 1 h post (1.05 h)): 63.2 µg/kg
metabolite concentration in urine, creatinine-normalized (U IV, 1 h post (1.05 h)): 52.7 µg/mmol creatinine
metabolite concentration in urine (U IV, 2 h post (2.12 h)): 82.8 µg/kg
metabolite concentration in urine, creatinine-normalized (U IV, 2 h post (2.12 h)): 52.5 µg/mmol creatinine
metabolite concentration in urine (U IV, 4 h post (4.05 h)): 108.4 µg/kg
metabolite concentration in urine, creatinine-normalized (U IV, 4 h post (4.05 h)): 22.3 µg/mmol creatinine
metabolite concentration in urine (U IV, 6 h post (6.08 h)): 96.7 µg/kg
metabolite concentration in urine, creatinine-normalized (U IV, 6 h post (6.08 h)): 6.9 µg/mmol creatinine
metabolite concentration in urine (U IV, 8 h post (8.05 h)): 73.4 µg/kg
metabolite concentration in urine, creatinine-normalized (U IV, 8 h post (8.05 h)): 15.4 µg/mmol creatinine
metabolite concentration in urine (U IV, 24 h post (24.03 h)): 6.8 µg/kg
metabolite concentration in urine, creatinine-normalized (U IV, 24 h post (24.03 h)): 0.7 µg/mmol creatinine
metabolite concentration in urine (U IV, pre (-0.05 h)): < LOD^3
metabolite concentration in urine, creatinine-normalized (U IV, pre (-0.05 h)): < LOD^3
metabolite concentration in urine (U IX, 0.5 h post (0.67 h)): 54.8 µg/kg
metabolite concentration in urine, creatinine-normalized (U IX, 0.5 h post (0.67 h)): 52.1 µg/mmol creatinine
metabolite concentration in urine (U IX, 1 h post (1.17 h)): 161.7 µg/kg
metabolite concentration in urine, creatinine-normalized (U IX, 1 h post (1.17 h)): 167.7 µg/mmol creatinine
metabolite concentration in urine (U IX, 2 h post (1.83 h)): 248.6 µg/kg
metabolite concentration in urine, creatinine-normalized (U IX, 2 h post (1.83 h)): 236.2 µg/mmol creatinine
metabolite concentration in urine (U IX, 4 h post (4.17 h)): 367.0 µg/kg
metabolite concentration in urine, creatinine-normalized (U IX, 4 h post (4.17 h)): 70.5 µg/mmol creatinine
metabolite concentration in urine (U IX, 6 h post (6.08 h)): 343.5 µg/kg
metabolite concentration in urine, creatinine-normalized (U IX, 6 h post (6.08 h)): 107.8 µg/mmol creatinine
metabolite concentration in urine (U IX, 8 h post (8.08 h)): 269.3 µg/kg
metabolite concentration in urine, creatinine-normalized (U IX, 8 h post (8.08 h)): 19.2 µg/mmol creatinine
metabolite concentration in urine (U IX, 24 h post (24.00 h)): 5.9 µg/kg
metabolite concentration in urine, creatinine-normalized (U IX, 24 h post (24.00 h)): 0.7 µg/mmol creatinine
metabolite concentration in urine (U IX, pre (-0.08 h)): < LOD^3
metabolite concentration in urine, creatinine-normalized (U IX, pre (-0.08 h)): < LOD^3
metabolite concentration in urine (U V, 0.5 h post (0.50 h)): 33.9 µg/kg
metabolite concentration in urine, creatinine-normalized (U V, 0.5 h post (0.50 h)): 49.6 µg/mmol creatinine
metabolite concentration in urine (U V, 1 h post (1.00 h)): 80.4 µg/kg
metabolite concentration in urine, creatinine-normalized (U V, 1 h post (1.00 h)): 96.0 µg/mmol creatinine
metabolite concentration in urine (U V, 2 h post (2.00 h)): 111.3 µg/kg
metabolite concentration in urine, creatinine-normalized (U V, 2 h post (2.00 h)): 132.8 µg/mmol creatinine
metabolite concentration in urine (U V, 4 h post (4.00 h)): 142.9 µg/kg
metabolite concentration in urine, creatinine-normalized (U V, 4 h post (4.00 h)): 46.1 µg/mmol creatinine
metabolite concentration in urine (U V, 6 h post (6.00 h)): 151.3 µg/kg
metabolite concentration in urine, creatinine-normalized (U V, 6 h post (6.00 h)): 30.1 µg/mmol creatinine
metabolite concentration in urine (U V, 8 h post (8.00 h)): 99.4 µg/kg
metabolite concentration in urine, creatinine-normalized (U V, 8 h post (8.00 h)): 45.8 µg/mmol creatinine
metabolite concentration in urine (U V, 24 h post (24.00 h)): 5.1 µg/kg
metabolite concentration in urine, creatinine-normalized (U V, 24 h post (24.00 h)): 0.9 µg/mmol creatinine
metabolite concentration in urine (U V, pre (-0.05 h)): < LOD^3
metabolite concentration in urine, creatinine-normalized (U V, pre (-0.05 h)): < LOD^3
metabolite concentration in urine (U VI, 0.5 h post (0.50 h)): 74.1 µg/kg
metabolite concentration in urine, creatinine-normalized (U VI, 0.5 h post (0.50 h)): 33.9 µg/mmol creatinine
metabolite concentration in urine (U VI, 1 h post (1.00 h)): 87.6 µg/kg
metabolite concentration in urine, creatinine-normalized (U VI, 1 h post (1.00 h)): 73.1 µg/mmol creatinine
metabolite concentration in urine (U VI, 2 h post (2.00 h)): 136.6 µg/kg
metabolite concentration in urine, creatinine-normalized (U VI, 2 h post (2.00 h)): 123.2 µg/mmol creatinine
metabolite concentration in urine (U VI, 4 h post (4.00 h)): 150.1 µg/kg
metabolite concentration in urine, creatinine-normalized (U VI, 4 h post (4.00 h)): 43.2 µg/mmol creatinine
metabolite concentration in urine (U VI, 6 h post (6.00 h)): 147.1 µg/kg
metabolite concentration in urine, creatinine-normalized (U VI, 6 h post (6.00 h)): 27.1 µg/mmol creatinine
metabolite concentration in urine (U VI, 8 h post (8.00 h)): 106.7 µg/kg
metabolite concentration in urine, creatinine-normalized (U VI, 8 h post (8.00 h)): 21.2 µg/mmol creatinine
metabolite concentration in urine (U VI, 24 h post (24.17 h)): 9.2 µg/kg
metabolite concentration in urine, creatinine-normalized (U VI, 24 h post (24.17 h)): 0.6 µg/mmol creatinine
metabolite concentration in urine (U VI, pre (-0.05 h)): < LOD^3
metabolite concentration in urine, creatinine-normalized (U VI, pre (-0.05 h)): < LOD^3
metabolite concentration in urine (U VII, 0.5 h post (0.50 h)): 44.1 µg/kg
metabolite concentration in urine, creatinine-normalized (U VII, 0.5 h post (0.50 h)): 41.3 µg/mmol creatinine
